Columns and labels:
[1] = test system: iNOS expression in BV-2 cells; assay: iNOS protein expression (western blot) in LPS-stimulated BV-2 cells; type: cell-based, murine; conditions: 2 μg/mL LPS, 14 h
From the text: It is well-established that reactive oxygen species (ROS) and nitric oxide (NO), produced during microglia activation, contribute to inflammatory response and cytotoxic damage to the surrounding neurons and neighbouring cells. Recent studies have shown that BV-2 microglial cell could serve as an in vitro model to mimic such neuroinflammatory states when stimulated with lipopolysaccharide (LPS)[49]. LPS activates BV-2 cells by triggering a cascade of inflammatory events which includes the production of NO. This event is characterized by the generation of the biomarker, inducible nitric oxide synthase (iNOS), as well as ROS. Chuang et al.[50] have also shown that cPLA2 is a major contributor in this pathway and inhibiting this enzyme reduces the production of the neurotoxic mediators and provide neuroprotective effects. Therefore to investigate the ability of 2i in inhibiting cPLA2 in a neuroinflammatory model, BV-2 cells were treated with LPS (2 μg/mL), incubated for different time points, collected and lysed for protein extraction. […] The cPLA2 level was also determined and found to be largely constant throughout the entire activation process with a slight drop at the 24 h timepoint (Fig. 3F). Next, 2i (1, 10 and 20 μM) were incubated together with LPS in the BV-2 cells for 14 h (Fig. 4A,B). […]

[2] = PAMPA with porcine brain lipids (BBB permeation); conditions: pig, pH 7.4
Method: Thus to explore whether 2i is able to penetrate into the brain, we used PAMPA with porcine brain lipids as the lipid barrier. […] A minimum Pe of […] × 10^−6 cm/s has been cited as the threshold for permeability across the blood brain barrier.
The Parallel Artificial Membrane Permeability Assay (PAMPA) was used to determine the effective permeability (Pe) of 2i. The method reported by Di et al.[53] was followed with modifications. Determinations were carried out on MultiScreen-IP PAMPA assay (donor) plates (MAIPNTR10) and MultiScreen Receiver Plates (MATRNPS50) from Millipore Corporation (USA) with porcine polar brain lipids (Avanti Polar Lipids Inc, Alabaster, AL) as the lipid barrier.
An aliquot (5 µL) of 2% porcine brain lipids in dodecane (ReagentPlus®, Sigma Aldrich, USA) was dispensed into the donor well. A stock solution (5 mM) of 2i prepared in DMSO was diluted with 1x phosphate buffer (PBS, pH 7.4) to give a 50 µM solution. An aliquot (300 µL) of the solution was dispensed into the donor well and an equal volume of buffer (1xPBS with 1% DMSO) was added to the corresponding acceptor well. The donor and acceptor plates were assembled, the unit was placed in a humidified box and gently agitated on a mini shaker at room temperature (25 °C) for 16 h. After this time, aliquots (200 µL) were withdrawn from the donor and acceptor wells, diluted separately to 1 mL with PBS, and quantified at λmax of 290 nm on a Shimadzu UV-1800 Spectrophotometer.
300 µL aliquots of stock solutions (500 µM, 1xPBS, 0.1% DMSO) were dispensed to donor wells as described earlier. Quantification was by UV at λmax of 272 nm (caffeine), 284 nm (carbamazepine), 330 nm (quinidine), 280 nm (dopamine) and 288 nm (propanolol). […] Pe was obtained from (3):3 Pe=−2.303×{VAVD/[(VA+VD)×A×t]}×log{1−[(VA+VD)/(VD.S)]×CA(t)/CD(0)} where VA and VD are the volumes of acceptor (cm^3) and donor (cm^3) wells respectively, A is the area of the surface area of the membrane (0.24 cm^2), t is the permeation time (s). The Pe of each compound was obtained from at least 3 separate experiments using 2 different stock solutions. For each independent determination, triplicates (3 wells) were run for each compound.

- Papp at 16 h, 50 µM [2]: 12.3 ± 1.46 ×10⁻⁶ cm/s
Compound: CCCCC/C=C\C/C=C\C/C=C\C/C=C\CCCCC(=O)Nc1cccc(C(=O)O)c1 [2i]
- reduction of LPS-induced iNOS expression ([1]; 20 µM): 50%
- iNOS level, concentration dependence ([1]; 1–20 μM): dose-dependent decrease in the iNOS level
